Non-standard residues stand in square brackets, D forms with d. Residues, ends and D or L forms follow the SMILES beside them. αMeP = C[C@@]1(C(=O)O)CCCN1

The source of these data is patent US9212204B2, “Treatment of rett syndrome using glycyl-L-2-methylprolyl-L-glutamic acid” (priority 2011, dated 2015).

One assay relates to MeCP2-/y mice. Nature of the assay: Life span of MeCP2-/y mice (Example 10). It is filed as in vivo, mouse. The following applies: 20 mg/kg i.p. daily; compared to MeCP2 KO littermates. How it is done: For the survival measurements, the nocturnal activity analysis and the immunoblot analysis, G-2-MePE (synthesised Albany Molecular Research Inc. (Albany, N.Y.) and supplied by Neuren Pharmaceuticals Limited) is administered daily via intra-peritoneal injections (20 mg/kg, vehicle=saline, 0.01% BSA). The treatment starts at PI 5 and is maintained throughout the course of the experiments. For intracellular physiology experiments, the mice are injected daily with G-2-MePE (20 mg/kg body weight, vehicle=saline, 0.01% BSA) for 2 weeks, from P15 to P28-P32 when they are used for acute slice preparation. For optical imaging experiments, mice are injected with G-2-MePE (20 mg/kg body weight, vehicle=saline, 0.01% BSA) daily from the day of the lid suture to the day of imaging.
To test whether G-2-MePE treatment will impact the development of cardinal features of the RTT disease, 2 week old mutant animals are given daily intra-peritoneal injections for the course of their lifespan. Measurements of synaptic physiology, synaptic molecular composition, and cortical plasticity are then acquired as detailed below, along with health-related measurements such as heart rate, locomotor activity levels, and lifespan.

Assay [1] has as its system animals with hypoxic-ischemic injuries caused by middle cerebral artery occlusion. The following applies: MCaO; cited from earlier work.
In assay [2] the test system is PCNA positive cells in the subventricular zone (SVZ). As to the kind of experiment: PCNA staining, neuroblast proliferation in the subventricular zone. It is filed as in vivo, rat. The following applies: for number of PCNA positive cells in the SVZ: 3 days after treatment. On the procedure: To carry out these studies, tissues were fixed and embedded in paraffin and sections obtained using standard methods. Coronal sections (6 μm) containing the level of the hippocampus were cut and mounted on chrome-alum-coated slides for staining. The sections were deparaffinized in xylene, dehydrated in a series of ethanol and incubated in 0.1 M phosphate buffered saline (PBS).
Primary antibodies against glial fibrillary acidic protein (GFAP) and proliferating cell nuclear antigen (PCNA) were used to mark reactive glial cells and cells undergoing apoptosis and proliferation, respectively. For antigen unmasking (caspase-3 and PCNA staining), sections were heated in 10 mM sodium citrate buffer (pH 6.0) for 1 min at high power. All sections were pretreated with 1% […] in 50% methanol for 30 min to quench the endogenous peroxidase activity. Then either 1.5% normal horse serum or 2.5% normal sheep serum in PBS was applied for 1 h at room temperature to block nonspecific background staining. The sections were then incubated with following primary antibodies: monoclonal mouse anti-GFAP antibody (Sigma, St. Louis, Mo., U.S.A. diluted 1:500); mouse anti-PCNA antibody (DAKA, A/S, Denmark, diluted 1:100). After incubation with primary antibodies at 4° C. for 2 d (except for PCNA staining which was incubated overnight) the sections were incubated with biotinylated horse anti-mouse or goat anti-rabbit secondary antibody (1:200, Sigma) at 4° C. overnight. The ExtrAvidin™ (Sigma, 1:200), which had been prepared 1 h before use, was applied for 3 h at room temperature, and then reacted in 0.05% 3,3-diaminobenzidine (DAB) and PBS to produce a brown reaction product. Sections were dehydrated in a series of alcohols to xylene and coverslipped with mounting medium.
Immunohistochemical staining was performed on brain samples taken from both control and G-2-MePE treated groups of young (4 months old), middle-aged (9 months old) and aged rats (18 months old).
Control sections were processed in the same way except the primary antibody was omitted from the incubation solution. The number of PCNA positive cells was counted in the subventricular zone and the GFAP positive cells was scored in the cerebral cortex.
The subventricular zone (SVZ) and the dentate gyrus (DG) are two brain regions hosting adult neurogenesis. […]
Eighteen month old male rats were treated intraperitoneally with single does of G2-MePE (doses of either 0, 0.012, 0.12. 1.2, 12 mg/kg). […] The number of PCNA positive cells was counted in the SVZ and the number of cells was then averaged as cells/mm depending on the length of ventricle wall used for counting (FIG. 19A). […]

In the case of `C[C@@]1(C(=O)N[C@@H](CCC(=O)O)C(=O)O)CCCN1C(=O)CN` [Example G-2-MePE, Glycyl-L-2-methylprolyl-L-glutamic acid] (H-Gly-[αMeP]-Glu-OH), in the assay with MeCP2-/y mice, the “increase in life expectancy (0.5 probability survival rate)” value is recorded as around 50%. Besides, the “non-convulsive seizures (NCS)” value in assay [1] is “inhibit”. The “number of PCNA positive cells in the SVZ” value in assay [2] (1.2 mg/kg i.p., 9 month old rats, p<0.005) is recorded as “significant increase”; in assay [2] (12 mg/kg single i.p. dose, 18 month old rats, vs vehicle p<0.05), “significant increase”. Also, in assay [2] (0.012-12 mg/kg single i.p. dose, 18 month old rats), the “dose dependence of effect on neurogenesis” value is “dose-dependent effect”. Besides, the “PCNA and doublecortin staining” value in assay [2] (highest dose, vs vehicle treated rat, FIG. 19B) is on record as “increase”.
